Measured values taken from BindingDB's records for doi:10.1021/jm1003705 (The University of Queensland, 2010).

Biological target: T1, C3a anaphylatoxin chemotactic receptor (Homo sapiens, UniProt Q16581)
T1 sequence (Q16581 whole entry): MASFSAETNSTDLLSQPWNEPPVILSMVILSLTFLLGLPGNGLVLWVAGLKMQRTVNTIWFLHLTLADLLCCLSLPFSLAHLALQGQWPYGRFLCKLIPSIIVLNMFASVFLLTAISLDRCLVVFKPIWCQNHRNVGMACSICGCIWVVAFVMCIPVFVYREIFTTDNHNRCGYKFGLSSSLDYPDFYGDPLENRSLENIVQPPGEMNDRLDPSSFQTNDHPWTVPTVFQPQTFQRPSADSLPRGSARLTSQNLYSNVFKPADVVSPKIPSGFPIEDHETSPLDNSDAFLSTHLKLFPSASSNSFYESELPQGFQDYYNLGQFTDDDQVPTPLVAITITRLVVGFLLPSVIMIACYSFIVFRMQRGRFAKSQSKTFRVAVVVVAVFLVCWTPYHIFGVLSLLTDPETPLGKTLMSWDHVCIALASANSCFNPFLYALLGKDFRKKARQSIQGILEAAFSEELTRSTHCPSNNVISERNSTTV
Test: Displacement of [125I-C3a] from C3a receptor in human PBMC by scintillation counting

`NC(N)=NCCC[C@H](NC(=O)COCC(c1ccccc1)c1ccccc1)C(=O)O` [(S)-2-(2-(2,2-diphenylethoxy)acetamido)-5-guanidinopentanoic acid] gave an IC50 of 125 nM.
